Measured values: ChEMBL document CHEMBL1147124, “Antigiardial activity of triterpenoids from root bark of Hippocratea excelsa” (J Nat Prod, 2007)
pIC50: −log10 of the molar value.

Each compound was assayed on Giardia intestinalis (assay: Antiprotozoal activity against Giardia intestinalis IMSS:0696:1 trophozoites after 48 hrs). Conditions: Giardia duodenalis.
Format: functional, organism-based

| SMILES | pIC50 |
| --- | --- |
| C[C@H]1C(=O)CCC2[C@]3(C)CC[C@@]4(C)C5CC(C)(C)[C@H](O)C[C@]5(C)CC[C@]4(C)C3CC[C@@]21C (stereo partly specified) | 4.70 |
| CC1(C)C[C@H]2C3=CC[C@@H]4[C@@]5(C)CCC(=O)C(C)(C)[C@@H]5CC[C@@]4(C)[C@]3(C)CC[C@@]2(C)C[C@@H]1O | 4.56 |
| COC(=O)[C@]1(C)CC[C@]2(C)CC[C@]3(C)C4=CC=C5C(=CC(=O)C(O)=C5C)[C@]4(C)CC[C@@]3(C)[C@@H]2C1 [PRISTIMERIN] | 6.96 |
| COC(=O)/C=C1\C(C(C)=O)=CC=C2[C@]3(C)CC[C@@]4(C)CC[C@@](C)(C(=O)OC)CC4[C@@]3(C)CC[C@]21C (stereo partly specified) [DZUNUNCANONE] | 4.65 |
| COC(=O)[C@]1(C)CC[C@]2(C)CC[C@]3(C)C4=CC=C5C(=CC(=O)[C@]6(O)Oc7cc8c(cc7O[C@]56C)C(=O)C=C5[C@@]8(C)CC[C@@]6(C)[C@@H]7C[C@](C)(C(=O)OC)CC[C@]7(C)CC[C@]56C)[C@]4(C)CC[C@@]3(C)[C@@H]2C1 [XUXARINE EBETA] | 4.95 |
| CC1=C(O)C(=O)C=C2C1=CC=C1[C@@]2(C)CC[C@@]2(C)[C@@H]3C[C@@H](C)C(=O)C[C@]3(C)CC[C@]12C [TINGENONE] | 6.13 |
